# Laboratory results taken from patent US9278994B2, “Short antimicrobial lipopeptides” (Helix BioMedix Inc., priority 2012, dated 2016).
# Where a SMILES comes first, the peptide text is derived from it. [ ]: non-standard residue; d: D form. The star is where a group is joined. Palmitoyl = CCCCCCCCCCCCCCCC(=O)*
# How the values were obtained:
# [1] = system: P. acnes, S. aureus, E. coli and C. albicans; experiment: MIC / antimicrobial activity; assay type: cell-based; details: summary of MIC results of Table 1
# Procedure: (§1) 2. Bacterial strains and culture conditions. E. coli UB1005, S. aureus SAP0017 (MRSA) and C. albicans 105 were grown in Mueller Hinton (MH) (Difco, BD Biosciences, MD) agar plates and broth (2 g of beef extract, 17.5 g of acid hydrolysis of casein and 1.5 g of starch per liter) at 37° C. unless otherwise indicated. Bacteria from frozen stock were subcultured onto freshly made MH agar plates prior to susceptibility testing. For P. acnes, the bacterium was grown in BBL™ Brain-Heart infusion (Becton, Dickinson & Company, Sparks Md.) broth or agar plates at 37° C. in anaerobic condition generated using a anaerobic jar and AnaeroGen™ (Oxoid, Basingstoke, Hampshire, England).
# (§2) 3. […] The minimal inhibitory concentration (MIC) of each peptide was determined using modified CLSI microtiter broth dilution assay (Methods for Dilution Antimicrobial Susceptibility Tests for Bacteria That Grow Aerobically; Approved Standard—Ninth Edition). An inoculum of 10^5-10^6 colony forming units (CFU)/ml was used or 10^4 CFU/ml for yeast. The MIC value was taken as the lowest peptide concentration at which more than 90% of microbial growth was inhibited after 15 to 20 h of incubation at 37° C. For P. acnes, the incubation was kept under anaerobic condition at 37° C. for 2 weeks before MIC was determined Kill kinetics was performed using a given concentration (about 2-5-fold MIC) of peptide mixed with indicator microorganism. After appropriate dilution the cells were plated on agar plates after defined time intervals and incubated at 37° C. overnight. In the case of P. acnes an extended incubation period was required. The CFU was counted and plotted as survival of bacteria after peptide treatment over time, which indicates the effectiveness of a peptide to kill a microbe.
# P. acnes = assay type: cell-based, Propionibacterium acnes
# Procedure: as §1, §2
# E. coli UB1005 = system: E. coli UB1005
# Procedure: (§3) We conducted the minimal inhibitory concentration (MIC) determination using CLSI (Clinical and Laboratory standard Institute) recommended standard protocol for antimicrobials (Methods for Dilution Antimicrobial Susceptibility Tests for Bacteria That Grow Aerobically; Approved Standard—Ninth Edition).
# as §1, §2
# C. albicans 105 = system: C. albicans 105
# Procedure: as §3, §1, §2
# S. aureus SAP0017 (MRSA) = system: S. aureus SAP0017 (MRSA)
# Procedure: as §3, §1, §2
# human dermal fibroblasts = experiment: Gene profiling (PCR array of extracellular matrix adhesion molecule genes); assay type: cell-based; details: 5 μg/ml, 24 h; up (+) or down (−) regulation
# Procedure: 5. Gene profiling analysis. The 84 genes encoding extracellular matrix adhesion molecules in human dermal fibroblasts were analyzed using PCR arrays conducted by Sunny Biodiscovery, Inc (Santa Paula, Calif.). Human dermal fibroblasts were from Zen-Bio, Research Triangle Park, N.C. (cat. #DF-F, lot #DFMF112410). […] At the end of the incubation cells were observed under the inverted Nikon TS microscope.
# At the end of the incubation period cells were preserved in RNAlater solution (Ambion, Austin, Tex.) for 6 h. RNA was extracted and purified with NucleoSpin RNA II kit from Machery-Nagel, Bethleem, Pa.). Purified total RNA was assessed at 230 nm, 260 nm and 280 nm with Agilent HP-8452A diode array spectrophotometer. The concentration of RNA was equalized across the samples and the expression of genes of interest was measured by real-time quantitative PCR with BioRad iCycler iQ Detection System using PCR arrays PAHS-013A (www.sabiosciences.com/rt_pcr_product/HTML/PAHS-013A.html), with 1st strand synthesis kit, SYBR Green master mix and PCR running conditions from Qiagen (formerly SA Biosciences). Efficiency ΔΔCt method was used for quantification of results, after the normalization of gene expression to 5 housekeeping genes carried with the RT2 Profiler PCR Array Data Analysis version 3.5 software.
SMILES,MIC P. acnes (P. acnes) [µg/mL],MIC E. coli (E. coli UB1005) [µg/mL],MIC C. albicans (C. albicans 105) [µg/mL],MIC S. aureus (S. aureus SAP0017 (MRSA)) [µg/mL],antimicrobial activity (in words) [1],further results
"CCCCCCCCCCCCCCCC(=O)N[C@@H](CCCCN)C(=O)N1CCC[C@@H]1C(=O)N[C@H](C(=O)O)[C@@H](C)O [HB2182, Pal-KdPT-OH] (Palmitoyl-Lys-[dP]-Thr-OH)",32,>2000,>2000,>2000,less active or inactive,–
"CCCCCCCCCCCCCCCC(=O)N[C@@H](CCCCN)C(=O)N1CCC[C@H]1C(=O)N[C@H](C(=O)O)C(C)C [HB2184, Pal-KPV-OH] (Palmitoyl-Lys-Pro-Val-OH)",8,>2000,>2000,>2000,less active or inactive,–
"CCCCCCCCCCCCCCCC(=O)N[C@@H](CCCCN)C(=O)N[C@@H](Cc1c[nH]c2ccccc12)C(N)=O [HB2248, Pal-KW-NH2] (Palmitoyl-Lys-Trp-NH2)",>2000,>2000,>2000,>2000,–,–
"CCCCCCCCCCCCCCCC(=O)N1CCC[C@H]1C(=O)N[C@@H](CCCCN)C(N)=O [HB2251, Pal-PK-NH2] (Palmitoyl-Pro-Lys-NH2)",4 to 16,2000,128,128,–,–
"CCCCCCCCCCCCCCCC(=O)N1CCC[C@H]1C(=O)N[C@@H](CCCCN)C(=O)O [HB2255, Pal-PK-OH] (Palmitoyl-Pro-Lys-OH)",>2000,>2000,>2000,>2000,inactive,–
"CCCCCCCCCCCCCCCC(=O)N[C@@H](CCCCN)C(=O)N1CCC[C@@H]1C(=O)O [HB2256, Pal-K-dP-OH] (Palmitoyl-Lys-[dP]-OH)",>2000,>2000,>2000,>2000,–,–
"CCCCCCCCCCCCCCCC(=O)N[C@@H](CCCCN)C(=O)N1CCC[C@H]1C(=O)O [HB2257, Pal-KP-OH] (Palmitoyl-Lys-Pro-OH)",>2000,>2000,>2000,>2000,inactive,–

# Continued, in another order:
MIC P. acnes (P. acnes) [µg/mL],MIC E. coli (E. coli UB1005) [µg/mL],MIC C. albicans (C. albicans 105) [µg/mL],MIC S. aureus (S. aureus SAP0017 (MRSA)) [µg/mL],SMILES,antimicrobial activity (in words) [1],further results
1 to 2,16,16,4,"CCCCCCCCCCCCCCCC(=O)N[C@@H](CCCCN)C(=O)N[C@@H](Cc1c[nH]cn1)C(N)=O [HB2242, Pal-KH-NH2]",broad spectrum antimicrobial activity,Fold change (peptide vs. PBS control) ADAMTS (human dermal fibroblasts): 4.7899 Fold change; Fold change (peptide vs. PBS control) CDH1 (human dermal fibroblasts): 1.9725 Fold change; Fold change (peptide vs. PBS control) COL1A1 (human dermal fibroblasts): 1.1975 Fold change; Fold change (peptide vs. PBS control) COL8A1 (human dermal fibroblasts): −1.4044 Fold change; Fold change (peptide vs. PBS control) HAS1 (human dermal fibroblasts): −2.3295 Fold change; Fold change (peptide vs. PBS control) ITGA6 (human dermal fibroblasts): −1.014 Fold change; Fold change (peptide vs. PBS control) ITGA7 (human dermal fibroblasts): −2.0279 Fold change; Fold change (peptide vs. PBS control) ITGB2 (human dermal fibroblasts): 1.3947 Fold change; Fold change (peptide vs. PBS control) KAL1 (human dermal fibroblasts): 1.8404 Fold change; Fold change (peptide vs. PBS control) MMP1 (human dermal fibroblasts): 1.7171 Fold change; Fold change (peptide vs. PBS control) MMP8 (human dermal fibroblasts): −1.6472 Fold change; Fold change (peptide vs. PBS control) MMP9 (human dermal fibroblasts): −1.6472 Fold change; Fold change (peptide vs. PBS control) MMP10 (human dermal fibroblasts): 1.2142 Fold change; Fold change (peptide vs. PBS control) MMP13 (human dermal fibroblasts): −2.4967 Fold change; Fold change (peptide vs. PBS control) MMP14 (human dermal fibroblasts): 1.2142 Fold change; Fold change (peptide vs. PBS control) SELE (human dermal fibroblasts): 1.3947 Fold change; Fold change (peptide vs. PBS control) THBS3 (human dermal fibroblasts): −3.0738 Fold change
32 to 64,>2000,>2000,250,"CCCCCCCCCCCCCCCC(=O)N[C@@H](CCCCN)C(=O)NCC(N)=O [HB2243, Pal-KG-NH2] (Palmitoyl-Lys-Gly-NH2)",more Gram-positive selective activity,–
8,>2000,>2000,250,"CCCCCCCCCCCCCCCC(=O)N[C@@H](CCCCN)C(=O)N[C@@H](CC(C)C)C(N)=O [HB2244, Pal-KL-NH2] (Palmitoyl-Lys-Leu-NH2)",more Gram-positive selective activity,–
>2000,>2000,>2000,128,"CCCCCCCCCCCCCCCC(=O)N[C@@H](CCCCN)C(=O)N[C@H](C(N)=O)[C@@H](C)CC [HB2246, Pal-KI-NH2]",more Gram-positive selective activity,–
2 to 4,500,32,16,"CCCCCCCCCCCCCCCC(=O)N[C@@H](CCCCN)C(=O)N[C@@H](CCCNC(=N)N)C(=O)O [HB2253, Pal-KR-OH] (Palmitoyl-Lys-Arg-OH)",broad spectrum antimicrobial activity,–
1 to 4,32,64,16,"CCCCCCCCCCCCCCCC(=O)N[C@@H](CCCCN)C(=O)N[C@@H](CCCCN)C(=O)O [HB2258, Pal-KK-OH]",–,–
<1,8,16,2,"CCCCCCCCCCCCCCCC(=O)N[C@@H](CCCCN)C(=O)N[C@@H](CCCNC(=N)N)C(N)=O [HB2259, Pal-KR-NH2] (Palmitoyl-Lys-Arg-NH2)",broad spectrum antimicrobial activity,Fold change (peptide vs. PBS control) ADAMTS (human dermal fibroblasts): 2.4284 Fold change; Fold change (peptide vs. PBS control) CDH1 (human dermal fibroblasts): 1.0718 Fold change; Fold change (peptide vs. PBS control) COL1A1 (human dermal fibroblasts): −1.8661 Fold change; Fold change (peptide vs. PBS control) COL8A1 (human dermal fibroblasts): −2.5847 Fold change; Fold change (peptide vs. PBS control) HAS1 (human dermal fibroblasts): −3.0314 Fold change; Fold change (peptide vs. PBS control) ITGA2 (human dermal fibroblasts): 1.3195 Fold change; Fold change (peptide vs. PBS control) ITGA7 (human dermal fibroblasts): −1.8661 Fold change; Fold change (peptide vs. PBS control) ITGB2 (human dermal fibroblasts): 2.1435 Fold change; Fold change (peptide vs. PBS control) KAL1 (human dermal fibroblasts): 1.2311 Fold change; Fold change (peptide vs. PBS control) MMP1 (human dermal fibroblasts): 1.1487 Fold change; Fold change (peptide vs. PBS control) MMP8 (human dermal fibroblasts): 2.1435 Fold change; Fold change (peptide vs. PBS control) MMP9 (human dermal fibroblasts): −2.1435 Fold change; Fold change (peptide vs. PBS control) MMP10 (human dermal fibroblasts): 1.6245 Fold change; Fold change (peptide vs. PBS control) MMP13 (human dermal fibroblasts): −3.249 Fold change; Fold change (peptide vs. PBS control) MMP14 (human dermal fibroblasts): −2.4623 Fold change; Fold change (peptide vs. PBS control) SELE (human dermal fibroblasts): 1.0718 Fold change; Fold change (peptide vs. PBS control) THBS3 (human dermal fibroblasts): −1.6245 Fold change
